Results from patent publication US8207329B2, “Synthesis of chlorins and phorbines with enhanced red spectral features” (North Carolina State University, priority 2005, dated 2012).

Test: Absorption spectra obtained in toluene at room temperature
Assay type: physicochemical
Conditions: for ΔνQy: redshift relative to the parent chlorin (ZnC or Zn—M^10), toluene; for Qy band / B/Qy band intensity ratio: toluene at room temperature; for Qy band: normalized at the B bands
Source text: (§1) Absorption Spectra. The spectral properties of interest in the chlorins include the position of the long-wavelength Qy transition, the intensity of the Qy transition, and the fluorescence quantum yield of the chlorin. The intensity of the Qy transition can be assessed by the measured molar absorption coefficient; however, comparisons of such values are somewhat unreliable given the experimental variability encountered upon handling small quantities of materials. A better comparison is achieved by examination of the ratio of the intensities of the B and Qy bands for a given compound (B/Qy ratio), which is determined simply by absorption spectroscopy without requiring determination of the molar absorption coefficient. For a wide variety of applications, bathochromic and hyperchromic shifts of the Qy band are desired (i.e., shifted to longer wavelength and intensified), thereby affording strong absorption in the deep-red region.
General. ^1H NMR (400 MHz) and ^13C NMR (75 MHz) spectra were collected at room temperature in CDCl3. Absorption spectra were obtained in toluene at room temperature. Chlorins were analyzed by laser desorption mass spectrometry (LD-MS) in the absence of a matrix. Fast atom bombardment mass spectrometry (FAB-MS) data are reported for the molecule ion or protonated molecule ion. Melting points are uncorrected. All commercially available materials were used as received. All palladium-coupling reactions were carried out using standard Schlenk-line techniques.
as §1, with “B. Absorption” for “Absorption”, “Spectroscopy.” for “Spectra.”, “increased” for “intensified), thereby affording strong absorption”, “intensity).” for “the deep-red region.”
General. ^1H NMR (400 MHz) and ^13C NMR (75 MHz) spectra were collected at room temperature in CDCl3 unless noted otherwise. Absorption spectra were obtained in toluene at room temperature. Chlorins were analyzed by laser desorption mass spectrometry (LD-MS) in the absence of a matrix. Metalation of free base chlorins was monitored by fluorescence spectroscopy. Melting points are uncorrected. All commercially available materials were used as received.

[1] = Table 3, zinc chlorins in toluene at room temperature
[2] = Table 1, in toluene at room temperature
[3] = figure legends (FIG. 1, 2, 4, 5)

Compound | ΔνQy (Table 3) [cm⁻¹] | B/Qy ratio [1] | λmax (nm), B [1] [nm] | λmax (nm), Qy [1] [nm] | Qy band (figure legends (FIG. 4, 5)) | Qy band (figure legend (FIG. 4)) | B/Qy band intensity ratio (figure legends (FIG. 4, 5)) | B/Qy intensity ratio [2] | Log ε (M^−1cm^−1) (Qy band) [2] | λmax (nm), B [2] [nm] | λmax (nm), Qy [2] [nm] | Qy band [3] [nm]
CC(=O)c1cc2[n]3c1C=C1CC(C)(C)C(=N1)C=c1ccc([n]1[Zn]3)=CC1=NC(=C2c2c(C)cc(C)cc2C)C=C1 [ZnC-M^10A^13, Zn(II)-13-Acetyl-17,18-dihydro-10-mesityl-18,18-dimethylporphyrin] | 680 | 2.2 | 418 | 632 | 632 | – | – | – | – | – | – | –
CC(=O)c1cc2[n]3c1C=C1CC(C)(C)C(=N1)C=c1cc(C#C[Si](C(C)C)(C(C)C)C(C)C)c([n]1[Zn]3)=CC1=NC(=C2c2c(C)cc(C)cc2C)C=C1 [ZnC-E^3M^10A^13, Zn(II)-13-Acetyl-3-[2-(triisopropylsilyl)ethynyl]-17,18-dihydro-10-mesityl-18,18-dimethylporphyrin] | 1160 | 1.5 | 428 | 652 | – | 652 | 1.5 | – | – | – | – | –
Cc1cc(C)c(C2=c3cc(C#C[Si](C(C)C)(C(C)C)C(C)C)c4[n]3[Zn][n]3c(ccc3C=C3N=C(C=4)CC3(C)C)C=C3C=CC2=N3)c(C)c1 [ZnC-M^10E^13, Zn(II)-13-[2-(Triisopropylsilyl)ethynyl]-17,18-dihydro-10-mesityl-18,18-dimethylporphyrin] | 530 | 2.3 | 412 | 626 | – | – | – | – | – | – | – | –
Zn(II)-3-(2-(Triisopropylsilyl)ethynyl)-17,18-dihydro-10-mesityl-18,18-dimethylporphyrin [ZnC-E^3M^10] | 550 | 2.3 | 416 | 627 | – | – | – | – | – | – | – | –
Cc1ccc(C2=c3ccc4[n]3[Zn][n]3c(cc(Br)c3C=C3CC(C)(C)C(=N3)C=4)C(c3c(C)cc(C)cc3C)=C3C=CC2=N3)cc1 [Zn-6, Zn(II)-13-Bromo-17,18-dihydro-10-mesityl-18,18-dimethyl-5-p-tolylporphyrin] | – | – | – | – | – | – | – | 4.0 | 4.65 | 414 | 616 | –
CC(=O)c1cc2[n]3c1C=C1CC(C)(C)C(=N1)C=c1cc(C#C[Si](C(C)C)(C(C)C)C(C)C)c([n]1[Zn]3)=CC1=NC(=C2)C=C1 [ZnC-E^3A^13] | 1320 | 1.2 | 428 | 655 | – | – | 1.2 | – | – | – | – | 655
CC(C)[Si](C#Cc1cc2[n]3c1C=C1CC(C)(C)C(=N1)C=c1cc(C#C[Si](C(C)C)(C(C)C)C(C)C)c([n]1[Zn]3)=CC1=NC(=C2)C=C1)(C(C)C)C(C)C [ZnC-E^3E^13] | 1080 | 1.4 | 421 | 645 | 645 | – | – | – | – | – | – | –
Cc1cc(C)c(C2=c3cc(C#C[Si](C(C)C)(C(C)C)C(C)C)c4[n]3[Zn][n]3c(cc(C#C[Si](C(C)C)(C(C)C)C(C)C)c3C=C3C=CC2=N3)C=C2N=C(C=4)CC2(C)C)c(C)c1 [ZnC-E^3M^10E^13, Zn(II)-3,13-Bis[2-(triisopropylsilyl)ethynyl]-17,18-dihydro-10-mesityl-18,18-dimethylporphyrin] | 1020 | 1.6 | – | 646 | – | – | – | – | – | – | – | 646
